Reference: patent US20070048370A1, “Pharmaceutical formulation for salts of monobasic acids with clopidogrel” (priority 2005, published 2007)
Like-named read-outs stand apart in the source and are kept apart here.

Description: The stability of clopidogrel besylate in the presence of various tabletting excipients was investigated. For this purpose, clopidogrel besylate was thoroughly triturated with the excipient in the ratio 1:1 and stored for two weeks at 40° C. and 75% relative humidity. The content of clopidogrel besylate in the sample was then determined.

Substance: 5-methyl-a-(4,5,6,7-tetrahydro[2,3-c]thienopyridyl)(2-chlorophenyl)acetate [Clopidogrel besylate]
- Clopidogrel besylate Residual content (%) (1:1 with AcDiSol, two weeks at 40° C. and 75% relative humidity): 94.00%
- Clopidogrel besylate Residual content (%) (1:1 with Lactose, two weeks at 40° C. and 75% relative humidity): 99.86%
- Clopidogrel besylate Residual content (%) (1:1 with Macrogol 6000, two weeks at 40° C. and 75% relative humidity): 90.07%
- Clopidogrel besylate Residual content (%) (1:1 with Mannitol, two weeks at 40° C. and 75% relative humidity): 99.85%
- Clopidogrel besylate Residual content (%) (1:1 with Mg-stearate, two weeks at 40° C. and 75% relative humidity): 51.99%
- Clopidogrel besylate Residual content (%) (1:1 with Microcrystalline cellulose, two weeks at 40° C. and 75% relative humidity): 99.24%
- Clopidogrel besylate Residual content (%) (1:1 with Silica, two weeks at 40° C. and 75% relative humidity): 99.44%
- Clopidogrel besylate Residual content (%) (1:1 with Stearic acid, two weeks at 40° C. and 75% relative humidity): 99.50%
- Clopidogrel besylate Residual content (%) (no excipient, stored two weeks at 40° C. and 75% relative humidity, content vs beginning of storage): 99.76%
- Compatibility with excipient (decomposition of the active substance) (with Macrogol 6000): incompatible
- Compatibility with excipient (decomposition of the active substance) (with Magnesium stearate): incompatible
- Compatibility with excipient (decomposition of the active substance) (with croscarmellose sodium (AcDiSol)): incompatible
- Compatibility with excipient (decomposition of the active substance) (with sodium lauryl sulfate): incompatible
